Legend:
[1] = biological target: Stromelysin-1 (Homo sapiens, UniProt P08254); experiment: Inhibitory activity against recombinant matrix metalloprotease-3
[2] = biological target: 72 kDa type IV collagenase (Homo sapiens, UniProt P08253); experiment: Inhibitory activity against recombinant matrix metalloprotease-2
[3] = biological target: T1, Interstitial collagenase (Homo sapiens, UniProt P03956); experiment: Inhibition of Matrix metalloprotease-1
T1 sequence (P03956 whole entry): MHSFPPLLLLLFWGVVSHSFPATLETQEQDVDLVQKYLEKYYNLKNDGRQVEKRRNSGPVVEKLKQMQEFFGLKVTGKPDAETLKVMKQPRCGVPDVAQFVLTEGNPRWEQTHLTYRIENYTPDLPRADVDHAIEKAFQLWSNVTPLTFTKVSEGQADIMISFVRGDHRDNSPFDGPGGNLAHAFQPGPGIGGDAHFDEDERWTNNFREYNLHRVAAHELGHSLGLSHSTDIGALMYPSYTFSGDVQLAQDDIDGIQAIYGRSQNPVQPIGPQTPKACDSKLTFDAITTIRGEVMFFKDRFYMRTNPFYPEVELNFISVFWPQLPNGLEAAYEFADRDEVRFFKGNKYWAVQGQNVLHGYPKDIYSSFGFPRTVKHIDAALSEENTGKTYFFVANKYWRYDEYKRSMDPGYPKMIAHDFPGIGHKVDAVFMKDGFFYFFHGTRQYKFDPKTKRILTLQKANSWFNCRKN

[4] = biological target: Phosphodiesterase 4 (Cavia porcellus); experiment: Phosphodiesterase 4 inhibitory activity measured against guinea pig macrophage homogenate

Sequence of 72 kDa type IV collagenase (P08253 whole entry): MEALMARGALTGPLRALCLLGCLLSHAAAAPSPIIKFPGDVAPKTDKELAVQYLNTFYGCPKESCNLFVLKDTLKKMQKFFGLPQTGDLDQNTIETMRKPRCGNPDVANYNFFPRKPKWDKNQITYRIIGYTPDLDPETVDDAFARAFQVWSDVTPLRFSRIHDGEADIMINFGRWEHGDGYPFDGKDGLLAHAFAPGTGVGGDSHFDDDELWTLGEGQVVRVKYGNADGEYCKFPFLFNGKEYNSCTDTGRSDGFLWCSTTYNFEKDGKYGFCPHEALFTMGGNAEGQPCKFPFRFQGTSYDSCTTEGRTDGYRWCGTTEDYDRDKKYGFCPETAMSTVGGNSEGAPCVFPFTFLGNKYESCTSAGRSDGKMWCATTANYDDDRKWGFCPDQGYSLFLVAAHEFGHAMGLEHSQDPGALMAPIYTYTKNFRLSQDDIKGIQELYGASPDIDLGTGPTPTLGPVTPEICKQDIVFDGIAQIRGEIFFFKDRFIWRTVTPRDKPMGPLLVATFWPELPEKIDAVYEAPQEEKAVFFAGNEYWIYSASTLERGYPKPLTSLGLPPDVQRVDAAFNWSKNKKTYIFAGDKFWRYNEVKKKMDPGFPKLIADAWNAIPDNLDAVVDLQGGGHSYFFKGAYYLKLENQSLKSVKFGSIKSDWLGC
Sequence of Stromelysin-1 (P08254 whole entry): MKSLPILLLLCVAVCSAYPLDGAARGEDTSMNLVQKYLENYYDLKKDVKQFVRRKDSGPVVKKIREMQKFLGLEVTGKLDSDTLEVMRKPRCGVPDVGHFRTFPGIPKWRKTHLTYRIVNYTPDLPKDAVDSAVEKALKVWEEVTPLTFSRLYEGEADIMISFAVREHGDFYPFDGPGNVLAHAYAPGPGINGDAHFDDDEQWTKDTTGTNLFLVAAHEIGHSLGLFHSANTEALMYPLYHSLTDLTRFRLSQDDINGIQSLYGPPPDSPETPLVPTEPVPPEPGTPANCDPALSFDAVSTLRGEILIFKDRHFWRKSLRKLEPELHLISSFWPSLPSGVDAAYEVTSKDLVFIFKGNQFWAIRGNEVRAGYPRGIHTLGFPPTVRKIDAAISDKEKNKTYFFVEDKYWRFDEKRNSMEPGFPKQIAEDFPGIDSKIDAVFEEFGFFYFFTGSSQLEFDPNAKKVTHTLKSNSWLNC

SMILES	IC50 [1] [µM]	IC50 [2] [µM]	IC50 [3] [µM]	IC50 [4] [nM]
COc1ccc(S(=O)(=O)C(CCCCc2ccc3c(c2)OCO3)CC(=O)NO)cc1OC1CCCC1 (stereo unspecified)	> 10	> 10	> 10	11
COc1ccc(S(=O)(=O)C(CCCCc2ccccc2)CC(=O)NO)cc1OC (stereo unspecified)	> 10	> 10	> 10	
COc1ccc(S(=O)(=O)C(CCCCc2ccccc2)CC(=O)NO)cc1OC1CCCC1 (stereo unspecified)	> 10	> 10	> 10	6.9
